Assay [1] has as its target T1, human galectin-1 (Homo sapiens, UniProt P09382). The assay can be described thus: Fluorescence anisotropy competitive inhibition assay, galectin 1. Set-up: His6-GST (N, cleaved yes); made in house; host or cells: E. coli BL21 RILP. Type of assay: binding. Particulars: for Ki: Ki calculated from IC50 with online calculator, read-out: Ki against human galectin-1; for Ki / IC50: average and standard deviation; for affinity to galectin-1 compared with the fluorescent probe: exact Ki not determinable, given as possible range; for IC50: protein 500 nM, probe 100 nM, at least three measurements, read-out: IC50 against human galectin-1 under measured condition. The procedure: Analytical Biochemistry 2004, 334 (1), 36-47, page 39, paragraph “Fluorescence Polarization”. As a competitive fluorescent probe, the compound 3,3′-dideoxy-3-[4-(fluorescein-5-yl-carbonylamino-methyl)-1H-1,2,3-triazol-1-yl]-3′-[4-(3-fluorophenyl)-1H-1,2,3-triazol-1-yl]-1,1′-sulfanediyl-di-β-D-galactopyranoside was used in the measurements. Fluorescence anisotropy was measured using a Tecan Spark multimode microplate reader equipped with fluorescence polarization filters and black polystyrene round-bottomed microtiter plates (Corning®, 384 wells) in samples with a final volume of […]. The samples were incubated in the dark for 30 minutes before measurement.
The Kd values were obtained using nonlinear regression performed by GraphPad Prism software (version 10.0.2, GraphPad, USA) for direct ligand-protein interaction using the formula: A=A0+(Amax−A0)×([G]/(Kd+[G])), where A0 is the anisotropy of the probe in the absence of galectin, Amax is the maximum achieved anisotropy of the probe with increasing galectin concentration, [G] is the total galectin concentration in a measured sample, and A is the measured anisotropy of the measured sample. […] Raw anisotropy data from the reader were plotted against concentration using GraphPad Prism software (version 10.0.2, GraphPad, USA) and nonlinear fitting “[Inhibitor]vs. response—Variable slope (four parameters)” analysis was used to calculate the IC50 values (half-maximal inhibitory concentration) for each titration. The IC50 values from each titration experiment were then used to calculate the inhibition constant Ki using an online calculator (http://websites.umich.edu/-shaomengwanglab/software/calc_ki/index.html). The used model is described in the following publication: Development and optimization of a binding assay for the XIAP BIR3 domain using fluorescence polarization, Analytical Biochemistry 2004, 332 (2), 261-273.

The next assay addresses T2, human galectin-3-CRD (Homo sapiens, UniProt P17931).
T2 construct: human galectin-3-CRD; fused on or other part: N-terminal His6-GST tag, cleaved off by TEV protease before the fluorescence anisotropy test
The assay can be described thus: Fluorescence anisotropy competitive inhibition assay, galectin 3. Type of assay: binding. The settings on record: average and standard deviation; for Ki: Ki calculated from IC50 with online calculator, read-out: Ki against human galectin 3-CRD; for IC50: protein 50 nM, probe 5 nM, at least three measurements, read-out: IC50 against human galectin-3-CRD under measured condition. The procedure:
As a competitive fluorescent probe, the compound 3,3′-dideoxy-3-[4-(fluorescein-5-yl-carbonylamino-methyl)-1H-1,2,3-triazol-1-yl]-3′-[4-(3-fluorophenyl)-1H-1,2,3-triazol-1-yl]-1,1′-sulfanediyl-di-β-D-galactopyranoside was used in the measurements. Fluorescence anisotropy was measured using a Tecan Spark multimode microplate reader equipped with fluorescence polarization filters and black polystyrene round-bottomed microtiter plates (Corning®, 384 wells) in samples with a final volume of […]. The samples were incubated in the dark for 30 minutes before measurement.
The Kd values were obtained using nonlinear regression performed by GraphPad Prism software (version 10.0.2, GraphPad, USA) for direct ligand-protein interaction using the formula: A=A0+(Amax−A0)×([G]/(Kd+[G])), where A0 is the anisotropy of the probe in the absence of galectin, Amax is the maximum achieved anisotropy of the probe with increasing galectin concentration, [G] is the total galectin concentration in a measured sample, and A is the measured anisotropy of the measured sample. […] Raw anisotropy data from the reader were plotted against concentration using GraphPad Prism software (version 10.0.2, GraphPad, USA) and nonlinear fitting “[Inhibitor]vs. response—Variable slope (four parameters)” analysis was used to calculate the IC50 values (half-maximal inhibitory concentration) for each titration. The IC50 values from each titration experiment were then used to calculate the inhibition constant Ki using an online calculator (http://websites.umich.edu/-shaomengwanglab/software/calc_ki/index.html).

Another assay concerns HEK-293. Briefly: MTT cytotoxicity assay, HEK-293. Type of assay: cell-based, human. Particulars: embryonic kidney control cell line, 24-72 hours incubation. The procedure:
(§1) This assay is based on the reduction of the yellow soluble 3-[4,5-dimethylthiazol-2-yl]-2,5-diphenyl tetrazolium bromide (MTT) to insoluble formazan (blue star-shaped crystals). The reaction takes place on the mitochondrial membrane of living cells. Subsequently, the formazan is dissolved by adding a strong detergent (dimethyl sulfoxide, DMSO), and the color is evaluated spectrophotometrically at a wavelength of 570-595 nm.
(§2) Human cell lines derived from ovarian carcinoma (A2780, SK-OV-3), breast carcinoma (MDA-MB-231, MCF-7), and non-tumor epithelial line MCF-10A were used for the cytotoxicity test. Additionally, a cell line derived from embryonic kidney cells HEK293 was used as a control. A2780 cells were cultured in RPMI 1640 medium (Sigma-Aldrich) containing 10% fetal bovine serum (Biochrom AG), 2 mM L-glutamine (Gibco), and 100 U/mL penicillin/streptomycin (Biosera). SK-OV-3 cells were cultured in McCoy's medium (Sigma-Aldrich) containing 10% fetal bovine serum (Biochrom AG) and 100 U/mL penicillin/streptomycin (Biosera). […] After dissolving the blue crystals, the absorbance was measured in the wells of the plate on an ELISA Reader (Multidetection reader Infinititte M1000 PRO (Tecan Group Ltd, CH)) at a wavelength of 570-595 nm. Evaluation of IC50 as the inflection point of the curve of measured absorbance values using the GraphPad Prism software (version 10.0.2, GraphPad, USA).
In general terms: Tetrazolium assays rely on reduction of a dye to a coloured formazan, in cell work by metabolically active cells.

The test system of a further assay is MCF-7. Briefly: MTT cytotoxicity assay, MCF-7. Type of assay: cell-based, human. Particulars: breast carcinoma, 24-72 hours incubation. The procedure:
as §1, §2

The subject of the next assay is MCF-10A. Briefly: MTT cytotoxicity assay, MCF-10A. Particulars: non-tumor epithelial line, 24-72 hours incubation. Type of assay: cell-based, human. The procedure:
as §1, §2

For the next assay, the system named is A2780. Briefly: MTT cytotoxicity assay, A2780. Type of assay: cell-based, human. Particulars: ovarian carcinoma, 24-72 hours incubation. The procedure:
as §1, §2

The test system of the next assay is MDA-MB-231. The assay can be described thus: MTT cytotoxicity assay, MDA-MB-231. Type of assay: cell-based, human. The settings on record: breast carcinoma, 24-72 hours incubation. The procedure: as §1, §2
Assay [2] concerns the target T1, human galectin-1. Particulars: read-out: IC50 against human galectin-1; competitive ELISA, immobilized asialofetuin, His6-GST-Gal-1; average and standard deviation, at least 3 measurements. The procedure: (§3) An immobilized competitive ligand, asialofetuin (ASF), a glycoprotein terminated with LacNAc residues interacting with galectins, was used. Wells of microtiter plates (96-well BRAND plates-F-pureGrade, BRAND, Germany) were coated with ASF ([…] in 0.1M CO3^2−/HCO3^− buffer pH 9-9.8; 50 μL per well) and incubated overnight in a humid chamber at […]. Subsequently, wells were washed with 1×200 μL PBS (137 mM NaCl, 2.7 mM KCl, 8 mM Na2HPO4, and 2 mM KH2PO4, pH 7.4). PBS-Tween washes were performed 3×5 min following each subsequent step. The wells were blocked with 3% BSA in PBS (200 μL per well) and incubated for 1 hour at room temperature. Increasing concentrations of inhibitors in PBS buffer were mixed with His6-GST-Gal-3 or His6-GST-Gal-1 (target concentration 5 or 10 μM) and incubated in wells with ASF for 1 hour. […] The signal intensity was measured spectrophotometrically using the Multidetection reader Infinititte M1000 PRO (Tecan Group Ltd, CH) at 450 nm and corresponds to the amount of bound galectin. The respective inhibitory constant (IC50) was calculated from nonlinear regression (dose-response inhibition slope) of sigmoidal curves using GraphPad Prism software (version 10.0.2, GraphPad, USA).
A general note: ELISA stands for enzyme-linked immunosorbent assay.

Another assay addresses T3, human galectin-3 (Homo sapiens, UniProt P17931).
T3 construct: made in house; host or cells: E. coli BL21 RILP
The assay can be described thus: Competitive ELISA with immobilized asialofetuin, galectin 3. Particulars: His6-GST-Gal-3, average and standard deviation, at least 3 measurements, read-out: IC50 against human galectin-3. Type of assay: binding. The procedure:
as §3

In another assay the test system is SK-OV-3. The assay can be described thus: MTT cytotoxicity assay, SK-OV-3. Type of assay: cell-based, human. Particulars: ovarian carcinoma, 24-72 hours incubation. The procedure: as §1, §2

Where two headings read alike, the source gives them in different places. Where only a bound is given, the exact number is not on record here.

T1 sequence (P09382 whole entry): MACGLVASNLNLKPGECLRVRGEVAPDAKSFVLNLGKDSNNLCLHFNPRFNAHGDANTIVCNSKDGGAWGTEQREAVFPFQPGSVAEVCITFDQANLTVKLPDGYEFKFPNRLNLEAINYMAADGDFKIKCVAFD
T2 sequence (P17931 114-250 limits assumed): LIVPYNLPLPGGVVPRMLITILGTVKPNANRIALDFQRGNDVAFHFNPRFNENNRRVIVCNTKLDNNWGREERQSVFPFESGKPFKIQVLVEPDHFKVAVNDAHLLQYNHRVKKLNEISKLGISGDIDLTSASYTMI
T3 sequence (P17931 whole entry): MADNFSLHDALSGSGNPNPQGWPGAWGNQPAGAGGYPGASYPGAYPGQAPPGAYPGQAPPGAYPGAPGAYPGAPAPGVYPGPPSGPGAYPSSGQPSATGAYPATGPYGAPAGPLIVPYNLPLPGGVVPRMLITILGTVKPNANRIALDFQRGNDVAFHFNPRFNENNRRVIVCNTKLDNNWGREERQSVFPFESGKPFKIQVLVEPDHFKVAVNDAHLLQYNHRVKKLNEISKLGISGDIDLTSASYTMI

By Ki is commonly meant the dissociation constant of the complex between target and ligand, obtained from inhibition or displacement. Usually IC50 stands for the concentration that gives 50% inhibition. With “Ruthenium Complex with Benzene and Cl Ligands and PF6^− Counterions [Compound 7]”, at human galectin-1 [1], the Ki was below 5 nM, the “affinity to galectin-1 compared with the fluorescent probe” value is recorded as “significantly better affinity to galectin-1 than used fluorescent probe” and the IC50 was determined as 307 ± 33 nM. Besides, at human galectin-3-CRD, the Ki is 3.54 ± 0.32 µM and the half-inhibitory concentration (IC50) was 16.8 ± 1.5 µM.

Regarding “Ruthenium Complex with p-Cymene and Cl Ligands and BF4^− Counterions [Compound 5]”, at human galectin-1 [1], the inhibition constant Ki is below 5 nM, the “affinity to galectin-1 compared with the fluorescent probe” value is “significantly better affinity to galectin-1 than used fluorescent probe” and the IC50 is 187 ± 4 nM. Also, at human galectin-3-CRD, the Ki was 10.7 ± 1.9 µM and the IC50 came to 50.7 ± 9 µM.

For “Ruthenium Complex with p-Cymene and I Ligands and I^− Counterions [Compound 9]”, at human galectin-1 [1], the Ki was 37 ± 9 nM and the IC50 is 370 ± 16 nM. Besides, at human galectin-3-CRD, the Ki is 19 ± 3.3 µM and the IC50 was 89.8 ± 16 µM.

Take “Ruthenium Complex with Hexamethylbenzene and Cl Ligands and PF6^− Counterions [Compound 8]”: at human galectin-1 [1], the Ki was 114 ± 11 nM and the IC50 stood at 498 ± 26 nM. Moreover, on human galectin-3-CRD, the Ki is 43.4 ± 13 µM and the IC50 came to 205 ± 63 µM.

Turning to “Ruthenium Complex with p-Cymene and Cl Ligands and Cl^− Counterions [Compound 4]”, the results for the Ki on human galectin-1 [1] and at human galectin-3-CRD were 18 ± 11 nM and 21.2 ± 2.7 µM, respectively. Also, the IC50 on human galectin-1 [1] is 328 ± 18 nM; in the assay on HEK-293, 158 ± 42 µM; at human galectin-3-CRD it was 100 ± 12 µM; in the assay with MCF-7, above 200 µM; with MCF-10A, above 200 µM; with A2780, above 200 µM. Besides, the IC50 was above 200 µM with MDA-MB-231, 26 ± 4 nM on human galectin-1 [2], 87.2 ± 4.4 µM at human galectin-3 and above 200 µM in the assay with SK-OV-3.

For the substance “Ruthenium Complex with p-Cymene and Cl Ligands and PF6^− Counterions [Compound 6]”, the Ki at human galectin-1 [1] was below 5 nM; on human galectin-3-CRD, 15.2 ± 0.2 µM. Besides, the “affinity to galectin-1 compared with the fluorescent probe” value on human galectin-1 [1] was “significantly better affinity to galectin-1 than used fluorescent probe”. Besides, the IC50 on human galectin-1 [1] is 231 ± 17 nM; in the assay on HEK-293 it was 174 ± 28 µM; on human galectin-3-CRD it was 71.7 ± 0.84 µM; with MDA-MB-231 it was 141 ± 8 µM; on human galectin-3, 104 ± 38 µM; in the assay on SK-OV-3, above 200 µM.

Regarding “Ruthenium Complex with p-Cymene and I Ligands and PF6^− Counterions [Compound 10]”, on human galectin-1 [1], the Ki was 23 nM and the IC50 amounted to 347 ± 13 nM. Further, on human galectin-3-CRD, the Ki was 15.6 ± 1.8 µM and the half-maximal inhibitory concentration (IC50) was determined as 73.5 ± 8.1 µM.

The record behind these values is patent US20260109729A1, “RUTHENIUM COMPLEXES FOR INHIBITION OF GALECTINS, METHOD OF THEIR PREPARATION, AND USE THEREOF” (priority 2023, published 2026).
